The record followed here is ChEMBL document CHEMBL1157133, “Design, synthesis, and interaction study of quinazoline-2(1H)-thione derivatives as novel potential Bcl-xL inhibitors” (J Med Chem, 2010).

The target in assay [1] is T1, Bcl-2-like protein 1 (Homo sapiens, UniProt Q07817). Description: Inhibition of human Bcl-XL.
In assay [2] the test system is OVCAR-3. Description: Cytotoxicity against human OVCAR-3 cells after 48 hrs by MTT assay. To be noted: OVCAR-3, 48 h.
Assay [3] in a line: Cytotoxicity against human Bel7404 cells after 48 hrs by MTT assay. Particulars: BEL-7404, 48 h.
Assay [4] has as its system PC-3. Description: Cytotoxicity against human PC3 cells after 48 hrs by MTT assay. It is filed as functional, cell-based. To be noted: for EC50: PC-3, 48 h.
Assay [5] relates to A2780. Description: cells. Particulars: Homo sapiens, A2780, 48 h.
Description: Cytotoxicity against human A2780 cells after 48 hrs by MTT assay
The subject of assay [6] is HepG2. Description: cells. Particulars: Homo sapiens, HepG2, 48 h.
Description: Cytotoxicity against human HepG2 cells after 48 hrs by MTT assay
Assay [7] has as its system K562. Description: cells. To be noted: Homo sapiens, K562, 48 h.
Description: Cytotoxicity against human K562 cells after 48 hrs by MTT assay
The target of assay [8] is T1, Bcl-2-like protein 1. Description: Displacement of FITC-labeled BH3 peptide from human Bcl-XL after 1 hr by fluorescence polarization assay.
Assay [9] deals with Induced myeloid leukemia cell differentiation protein Mcl-1 homolog (Mus musculus, UniProt P97287). Description: Displacement of FITC-labeled BH3 peptide from GST-tagged mouse Mcl1 after 1 hr by fluorescence polarization assay.
Chain of Induced myeloid leukemia cell differentiation protein Mcl-1 homolog (P97287 whole entry): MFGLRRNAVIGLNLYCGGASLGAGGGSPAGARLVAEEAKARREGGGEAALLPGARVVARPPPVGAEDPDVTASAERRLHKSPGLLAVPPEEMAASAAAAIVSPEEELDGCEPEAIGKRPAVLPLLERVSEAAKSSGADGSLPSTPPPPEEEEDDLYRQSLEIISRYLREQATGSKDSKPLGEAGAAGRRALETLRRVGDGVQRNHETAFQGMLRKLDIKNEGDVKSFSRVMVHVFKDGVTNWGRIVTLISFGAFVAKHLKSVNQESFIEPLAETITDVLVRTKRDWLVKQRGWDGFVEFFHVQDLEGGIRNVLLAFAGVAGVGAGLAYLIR
Assay [10] addresses Apoptosis regulator Bcl-2 (Homo sapiens, UniProt P10415). Description: Displacement of FITC labeled BH3 peptide from His-tagged human BCL2 after 1 hr by fluorescence polarization assay.

T1 sequence (Q07817 whole entry): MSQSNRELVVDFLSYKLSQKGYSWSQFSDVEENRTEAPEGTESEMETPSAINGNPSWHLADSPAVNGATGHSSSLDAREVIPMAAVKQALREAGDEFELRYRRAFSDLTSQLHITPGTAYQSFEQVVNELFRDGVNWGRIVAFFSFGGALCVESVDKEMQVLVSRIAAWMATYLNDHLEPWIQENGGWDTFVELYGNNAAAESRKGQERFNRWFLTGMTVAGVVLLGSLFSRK
Chain of Apoptosis regulator Bcl-2 (P10415 whole entry): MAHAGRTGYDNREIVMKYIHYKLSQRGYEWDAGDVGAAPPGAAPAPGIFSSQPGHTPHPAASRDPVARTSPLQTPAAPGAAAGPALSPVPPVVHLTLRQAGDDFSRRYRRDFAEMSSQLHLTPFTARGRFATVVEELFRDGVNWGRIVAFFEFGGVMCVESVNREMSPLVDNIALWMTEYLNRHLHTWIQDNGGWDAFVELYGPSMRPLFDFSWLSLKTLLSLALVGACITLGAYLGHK

In turn, `O=C(O)c1cccc(-c2ccc(/C=c3\sc4n(c3=O)C(c3ccccc3)C3=C(N=4)c4ccccc4CC3)o2)c1` (stereo not drawn) displayed an IC50 in [1] of 12.6 µM. For the same compound, the EC50 in assay [2] is 18.9 µM; in assay [3] it was 71.7 µM; in assay [4], > 100 µM; in assay [5], 7.46 µM; in [6] it was 13.6 µM; in assay [7], > 100 µM.
Take `O=C(O)COc1cccc(/C=c2\sc3n(c2=O)C(c2cccc(F)c2)C2=C(N=3)c3ccccc3CC2)c1` (stereo not drawn): the IC50 in assay [1] came to 5.4 µM. Further, the EC50 in [2] was 2.8 µM; in assay [3] it was 50.9 µM; in [4], > 100 µM; in assay [5], 16.9 µM; in assay [6] it was 186 µM; in assay [7], > 100 µM. The Activity result in assay [4] was “Dose-dependent effect”.
Take `COc1ccccc1C1C2=C(N=c3s/c(=C\c4ccc(C(=O)O)cc4)c(=O)n31)c1ccccc1CC2` (stereo not drawn): in assay [1], the IC50 was found to be 12.6 µM. In addition, the EC50 in assay [2] amounted to 3.35 µM; in [3], 9.7 µM; in assay [4] it was 63.5 µM; in assay [5], 7.94 µM; in [6], 45 µM; in assay [7], 16.1 µM.
In the case of `COc1ccccc1C1C2=C(N=c3s/c(=C\c4cccc(OCC(=O)O)c4)c(=O)n31)c1cccc(OCc3ccccc3)c1CC2` (stereo not drawn), the IC50 in assay [1] is > 100 µM. In [4], the EC50 is > 100 µM.
For `O=C(O)c1cccc(-c2ccc(/C=c3\sc4n(c3=O)C(c3cccc(F)c3)C3=C(N=4)c4ccccc4CC3)o2)c1` (stereo not drawn), the IC50 was 3 µM in [1], 3 µM in [8], 8.6 µM in assay [9] and 3.2 µM in [10]. Further, the EC50 was 12 µM in [2]; 51.3 µM in [3]; > 100 µM in [4]; 5.81 µM in assay [5]; 15.4 µM in assay [6]; > 100 µM in [7]. For the same compound, in assay [4], the Activity entry was “Dose-dependent effect”.
Turning to `O=C(O)COc1cccc(/C=c2\sc3n(c2=O)C(c2cccc4ccccc24)C2=C(N=3)c3ccccc3CC2)c1` (stereo not drawn), half-maximal inhibition in [1] (IC50) was put at 19.7 µM. In addition, the EC50 in assay [2] was found to be 2.21 µM; in assay [3] it was 3.1 µM; in assay [4] it was 68 µM; in [5], 7.52 µM; in [6], 19.9 µM; in assay [7] it was 6.33 µM.
Compound `O=C(O)COc1cccc(/C=c2\sc3n(c2=O)C(c2ccccc2)C2=C(N=3)c3ccccc3CC2)c1` (stereo not drawn) gave an IC50 in assay [1] of 10.3 µM. Further, the EC50 in [2] is 2.73 µM; in assay [3], 7.8 µM; in assay [4] it was > 100 µM; in assay [5], 5.49 µM; in [6], 14.5 µM; in [7], 7.04 µM.
Compound `COc1ccccc1C1C2=C(N=c3s/c(=C\c4ccccc4OCC(=O)O)c(=O)n31)c1ccccc1CC2` (stereo not drawn) registered an IC50 in [1] of 12.1 µM. In addition, the EC50 was determined as 4.44 µM in assay [2]; 9.5 µM in assay [3]; 7.81 µM in assay [5]; 41.9 µM in assay [6]; 7.99 µM in [7]. Further, in [4], the Activity result was “Dose-dependent effect”.
For `COc1ccccc1C1C2=C(N=c3s/c(=C\c4ccc(-c5cccc(C(=O)O)c5)o4)c(=O)n31)c1ccccc1CC2` (stereo not drawn), in assay [1], the IC50 was found to be 5.3 µM. Besides, the EC50 in [2] is 9.06 µM; in assay [3], 140 µM; in assay [4] it was 23.2 µM; in assay [5], 4.94 µM; in assay [6], 35.6 µM; in assay [7], 20.8 µM.
Turning to `COc1ccccc1C1C=C(c2ccccc2)N=c2s/c(=C\c3cccc(OCC(=O)O)c3)c(=O)n21` (stereo not drawn), in [1], the IC50 was found to be 72 µM. The EC50 in assay [2] was 22.2 µM; in assay [3], > 500 µM; in assay [4], 65.2 µM; in assay [5], 9.98 µM; in assay [6], 175 µM; in assay [7], > 100 µM.
As to `O=C(O)c1cccc(-c2ccc(/C=c3\sc4n(c3=O)C(c3cccc(F)c3)C3=C(N=4)/C(=C/c4cccc(F)c4)CCC3)o2)c1` (stereo not drawn), in assay [1], the IC50 was > 100 µM. Further, the EC50 in assay [2] was 11.7 µM; in assay [3], 3.8 µM; in [4], 51.4 µM; in assay [5], 5.36 µM; in assay [6], 8 µM; in assay [7] it was > 100 µM.
In the case of `O=C(O)COc1cccc(/C=c2\sc3n(c2=O)C(c2ccco2)C2=C(N=3)c3ccccc3CC2)c1` (stereo not drawn), inhibition in [1] was half-maximal at 40.4 µM (IC50). For the same compound, the EC50 is 8.5 µM in assay [2]; 14 µM in [3]; 10.2 µM in assay [4]; 15.3 µM in assay [5]; 72.8 µM in assay [6]; > 100 µM in assay [7]. In [4], the Activity entry is “Dose-dependent effect”.
For `CC(C)C(C(=O)O)C1C(=O)/C(=C/c2ccc(Br)cc2)SC1=S` (stereo not drawn), the IC50 in assay [1] was found to be 6.2 µM.
Regarding `O=C(O)c1cccc(-c2ccc(/C=c3\sc4n(c3=O)C(c3ccccc3F)C3=C(N=4)c4ccccc4CC3)o2)c1` (stereo not drawn), in assay [1], the IC50 was 6.2 µM. Besides, the EC50 is 76.6 µM in [2]; > 500 µM in [3]; 31.2 µM in assay [4]; > 100 µM in assay [5]; > 500 µM in [6]; > 100 µM in [7].
Consider `CCOC(=O)COc1cccc(/C=c2\sc3n(c2=O)C(c2ccccc2OC)C2=C(N=3)c3ccccc3CC2)c1` (stereo not drawn), for which, in assay [1], 100 µM corresponded to half-maximal inhibition (IC50). Besides, the EC50 was 47.5 µM in [2]; 92.3 µM in assay [3]; 45 µM in assay [4]; 17.8 µM in assay [5]; 32.3 µM in assay [6]; > 100 µM in [7].
In the case of `O=C(O)c1cccc(-c2ccc(/C=c3\sc4n(c3=O)C(c3ccc(F)cc3)C3=C(N=4)c4ccccc4CC3)o2)c1` (stereo not drawn), half-maximal inhibition in [1] (IC50) was put at 5.2 µM. Besides, the EC50 stood at 5.85 µM in assay [2]; 25.9 µM in [3]; 13.4 µM in [4]; 7.38 µM in [5]; 35.1 µM in assay [6]; 26.3 µM in assay [7]. The Activity entry in assay [4] is “Dose-dependent effect”.
In [1], `COc1ccccc1C1C2=C(N=c3s/c(=C\c4ccc(OCC(=O)O)cc4)c(=O)n31)c1ccccc1CC2` (stereo not drawn) displayed an IC50 of 36 µM. For the same compound, the EC50 in [2] was determined as 2.85 µM; in [3] it was 6.1 µM; in assay [4], 11.1 µM; in assay [5] it was 6.13 µM; in [6], 15.3 µM; in [7], 5.62 µM.
In [1], `O=C(O)c1cccc(-c2ccc(/C=c3\sc4n(c3=O)C(c3cccc5ccccc35)C3=C(N=4)c4ccccc4CC3)o2)c1` (stereo not drawn) showed an IC50 of 13.4 µM. Besides, the EC50 in assay [2] is 18.7 µM; in assay [3] it was 204 µM; in assay [4] it was 24.2 µM; in assay [5], 6.34 µM; in assay [6], > 500 µM; in [7], 22.9 µM. Besides, the Activity entry in [4] is “Dose-dependent effect”.
For the compound `COc1ccc2c(c1)CCC1=C2N=c2s/c(=C\c3cccc(OCC(=O)O)c3)c(=O)n2C1c1ccccc1OC` (stereo not drawn), the IC50 in assay [1] is > 100 µM. Besides, the EC50 in [4] was > 100 µM.
`COc1ccccc1C1C2=C(N=c3s/c(=C\c4ccc(-c5cccc(C(=O)O)c5)cc4)c(=O)n31)c1ccccc1CC2` (stereo not drawn): in assay [1], the midpoint of inhibition, the IC50, lay at 26.7 µM. Moreover, the EC50 in [2] was 7.17 µM; in assay [3] it was 4.5 µM; in assay [4] it was 67.1 µM; in [5], 2.23 µM; in [6] it was 7.2 µM; in [7], 9.41 µM.
On to `COc1ccc2c(c1)CCC1=C2N=c2s/c(=C\c3ccc(-c4cccc(C(=O)O)c4)o3)c(=O)n2C1c1cccc(F)c1` (stereo not drawn), for which, in assay [1], the IC50 is > 100 µM. Also, in [4], the Activity result is “Dose-dependent effect” and the response was half-maximal at 35.2 µM (EC50).
Compound `COc1ccccc1C1C2=C(N=c3sc(=Cc4ccc(C=CC(=O)O)cc4)c(=O)n31)c1ccccc1CC2` (stereo not drawn) showed an IC50 in [1] of 12.7 µM. Besides, the EC50 is 3.29 µM in assay [2]; 11.2 µM in [3]; 17.3 µM in assay [4]; 7.85 µM in assay [5]; 49.8 µM in [6]; > 100 µM in [7]. Besides, in [4], the Activity entry was “Dose-dependent effect”.
Consider `COc1ccccc1C1C2=C(N=c3s/c(=C\c4cccc(OCC(=O)O)c4)c(=O)n31)c1cccc(OC(=O)c3ccccc3-c3ccccc3)c1CC2` (stereo not drawn), for which, in assay [1], the IC50 is > 100 µM. In assay [4], this compound came in with an EC50 of 16.6 µM.
On to `O=C(O)COc1cccc(/C=c2\sc3n(c2=O)C(c2cccc(F)c2)C2=C(N=3)/C(=C/c3cccc(F)c3)CCC2)c1` (stereo not drawn), for which the IC50 in [1] was > 100 µM. Besides, the EC50 in [2] was 3.27 µM; in assay [3], 4.3 µM; in assay [4] it was 12 µM; in assay [5], 6.8 µM; in assay [6] it was 15.9 µM; in assay [7], > 100 µM.
Take `O=C(O)c1cccc(-c2ccc(/C=c3\sc4n(c3=O)C(c3ccco3)C3=C(N=4)c4ccccc4CC3)o2)c1` (stereo not drawn): the IC50 in [1] was 35.9 µM. Moreover, the EC50 in assay [2] is > 100 µM; in assay [3] it was > 500 µM; in [4], 79.5 µM; in assay [5] it was 15.8 µM; in assay [6], > 500 µM; in [7], > 100 µM. In [4], the Activity result is “Dose-dependent effect”.
For the compound `O=C(O)c1cccc(-c2ccc(/C=c3\sc4n(c3=O)C(c3cccc([N+](=O)[O-])c3)C3=C(N=4)c4ccccc4CC3)o2)c1` (stereo not drawn), it took 1.9 µM to reach half-maximal inhibition in assay [1] (IC50). Further, the EC50 in assay [2] is 26.9 µM; in assay [3] it was 65.1 µM; in [4], 44.9 µM; in assay [5] it was 3.9 µM; in [6] it was 13.4 µM; in [7], 17.3 µM. Besides, the Activity result in assay [4] is “Dose-dependent effect”.
